# Laboratory results as given in US20120220482A1, “COMPOSITIONS AND METHODS FOR SCREENING PEPTOID LIBRARIES” (The Board of Regents of the University of Texas System, priority 2011, published 2012).
# Square brackets hold non-standard residues; d marks the D form. Peptide text beside a SMILES is read from it. * marks the point of attachment. N(4-Sulfamoylphenethyl)Gly = NS(=O)(=O)c1ccc(CCNCC(=O)O)cc1; Gly(N-piperonyl) = O=C(O)CNCc1ccc2c(c1)OCO2; hSer(lactone) = O=C1OCC[C@@H]1N*; NFurfurylGly = O=C(O)CNCc1ccco1; NAllylGly = C=CCNCC(=O)O
# Biological target: M2 monoclonal anti-flag antibody
# Experiment: Microarray binding of spotted hits titrated with anti-FLAG antibody
# Design: species or system mouse
# Settings: apparent KD from microarray binding curves with decreasing anti-FLAG antibody concentrations; NA = spot not bound by anti-FLAG antibody
# Description: (§1) A total of 16 copies of each array of 100 compounds (the hits and various controls) were spotted onto each microscope slide. Each array, isolated by applying a Whatman Fast Frame to the slide, was then incubated for 2 hr with either anti-Myc antibody or various concentrations of anti-FLAG antibody. After washing, the amount of antibody captured at each spot was quantified by subsequent hybridization with fluorescently labeled secondary antibody, another wash, drying, and scanning. […] No binding of the anti-FLAG antibody to the Myc peptide was observed, nor was binding of the anti-Myc antibody to any of the hits or the FLAG peptide.
# Microarray Spotting, Hybridization, and Data Analysis. Contents of the 384-well plates were printed onto maleimide-coated glass slides with a NanoPrint LM 360 (TeleChem International Inc., Sunnyvale, Calif.) with MP946 Micro Spotting Pins. A 10% ethanol (EM-AX007309; Midwest Grain Products) and water mixture was used to wash the pins before printing and after spotting of each compound. Multiple wash/sonicate/dry cycles were used between each sample pick-up and print cycle. Spots were printed on the slide to fit within the wells of a 16-well Whatman Fast Frame (Whatman no. 10486003), which allows 16 isolated hybridization events on a single slide. Slides were left in 50% humidity for 12 hr […]. After printing, the humidifier was turned off and the slides were left for at least 12 hr before free maleimide groups were blocked with 2% β-mercaptoethanol in DMF for 1 hr by placing the slides in glass slide holders inside of glass containers on a shaker in the chemical hood. Slides were washed sequentially with DMF for 30 min, tetrahydrofuran for 30 min, DMF for 30 min, acetonitrile thrice for 20 min, isopropanol thrice for 20 min, 13 TBST once for 20 min, then 0.13 TBST once for 20 min. Washed slides were spun dry for 5 min at 2000 rpm.
# Dry slides were placed inside the Whatman Fast Frame following the provided instructions, and each of the 16 wells per slide was blocked with 100 μl of StartingBlock (Fisher) for 1 hr at RT with a multichannel pipetteman. Wells were drained and washed once with […] TBST. TBST was drained one well at a time before adding 100 μl of appropriate concentrations of protein(s) diluted in 1:1 TBST:StartingBlock. The FastFrame was placed on wet paper towels inside of a glass cake pan, which was sealed with Glad Press'n Seal and placed on an orbital shaker for 2-4 hr at RT. Each well was washed with TBST six times before adding 4 μg/ml Alexa647 goat anti-mouse IgG secondary antibodies diluted in 1:1 TBST:StartingBlock for 1 hr at RT. Slides were washed five times for 3 min with 13 TBST, then once with 0.13 TBST, spun dry at 2000 rpm, then scanned using a GenePix Autoloader 4200AL Scanner (Molecular Devices, Sunnyvale Calif.). Slides were scanned with a power of 1003 and photomultiplier tube setting of 5003-6003. Gal files were created and used to determine fluorescence intensity of each of the spots with GenePixPro6.0. Gal files were aligned manually, then automatic spotfinding followed by manual correction of spots performed for each of the scanned slides. GPR files were created and median fluorescence-background fluorescence values for each of the spots were cut and pasted in Excel and arranged (using simple macros) to simplify transferring results to GraphPad Prism 5.0 software for binding curve analyses.
row,Compound,Kd
1,C[C@@H](NC(=O)[C@@H](Cc1ccc(O)cc1)NC(=O)[C@@H](CCCCN)NC(=O)[C@H](N)CC(N)=O)C(=O)N[C@H](CC(=O)O)C(=O)N[C@H](CC(=O)O)C(=O)N(CC(=O)N[C@H]1CCOC1=O)Cc1ccco1 [Spot A7] (H-[dN][dK][dY][dA][dD][dD][NFurfurylGly]-{hSer(lactone)}; C-terminus assumed),5 nM
2,C=CCNCC(=O)N[C@@H](C(=O)N[C@H](CCCCN)C(=O)N[C@H](Cc1ccc(O)cc1)C(=O)N[C@H](CC(=O)O)C(=O)N[C@H](CC(=O)O)C(=O)N(CC(=O)N[C@H]1CCOC1=O)Cc1ccco1)[C@H](C)O [Spot B1] (H-[NAllylGly][dT][dK][dY][dD][dD][NFurfurylGly]-{hSer(lactone)}),3 nM
3,N=C(N)NCCC[C@@H](NC(=O)[C@@H](Cc1ccc(O)cc1)NC(=O)[C@@H](CCCCN)NC(=O)[C@H](N)CCC(=O)O)C(=O)N[C@H](Cc1ccc(O)cc1)C(=O)N[C@H](Cc1c[nH]c2ccccc12)C(=O)N(CC(=O)N[C@H]1CCOC1=O)Cc1ccco1 [Spot B4] (H-[dE][dK][dY][dR][dY][dW][NFurfurylGly]-{hSer(lactone)}; C-terminus assumed),7 nM
4,CC(C)C[C@@H](N)C(=O)N[C@H](CC(=O)O)C(=O)N[C@H](CCCCN)C(=O)N[C@H](Cc1ccc(O)cc1)C(=O)N[C@H](CCC(=O)O)C(=O)N[C@H](Cc1c[nH]c2ccccc12)C(=O)N(CC(=O)N[C@H]1CCOC1=O)Cc1ccco1 [Spot B7] (H-[dL][dD][dK][dY][dE][dW][NFurfurylGly]-{hSer(lactone)}; C-terminus assumed),6 nM
5,NCCCC[C@@H](NC(=O)[C@H](N)CC(=O)O)C(=O)N[C@H](Cc1ccc(O)cc1)C(=O)N[C@H](Cc1ccccc1)C(=O)N[C@H](CO)C(=O)N(CCc1ccc(S(N)(=O)=O)cc1)CC(=O)N(CC(=O)N[C@H]1CCOC1=O)Cc1ccco1 [Spot B8] (H-[dD][dK][dY][dF][dS][N(4-Sulfamoylphenethyl)Gly][NFurfurylGly]-{hSer(lactone)}),9 nM
6,NCCCC[C@@H](NC(=O)[C@@H](CO)NC(=O)[C@H](N)CCC(=O)O)C(=O)N[C@H](Cc1ccc(O)cc1)C(=O)N[C@H](CC(=O)O)C(=O)N[C@H](Cc1ccc(O)cc1)C(=O)N(CC(=O)N[C@H]1CCOC1=O)Cc1ccco1 [Spot B9] (H-[dE][dS][dK][dY][dD][dY][NFurfurylGly]-{hSer(lactone)}; C-terminus assumed),2 nM
7,NCCCC[C@@H](N)C(=O)N[C@H](Cc1ccc(O)cc1)C(=O)N[C@H](Cc1ccc(O)cc1)C(=O)N[C@H](CC(N)=O)C(=O)N[C@H](CC(=O)O)C(=O)N(CC(=O)N(CC(=O)N[C@H]1CCOC1=O)Cc1ccco1)Cc1ccc2c(c1)OCO2 [Spot D5] (H-[dK][dY][dY][dN][dD][Gly(N-piperonyl)][NFurfurylGly]-{hSer(lactone)}),7 nM
8,C=CCN(CC(=O)N(CC(=O)N[C@H]1CCOC1=O)Cc1ccco1)C(=O)[C@@H](CC(=O)O)NC(=O)CNC(=O)CN(Cc1ccc2c(c1)OCO2)C(=O)[C@@H](Cc1ccc(O)cc1)NC(=O)[C@H](N)CCCCN [Spot E4] (H-[dK][dY][Gly(N-piperonyl)]G[dD][NAllylGly][NFurfurylGly]-{hSer(lactone)}),8 nM
9,C[C@@H](NC(=O)[C@@H](Cc1ccc(O)cc1)NC(=O)[C@@H](CCCCN)NC(=O)[C@@H](Cc1ccccc1)NC(=O)[C@H](N)CC(=O)O)C(=O)N[C@H](CCC(=O)O)C(=O)N(CC(=O)N[C@H]1CCOC1=O)Cc1ccco1 [Spot E8] (H-[dD][dF][dK][dY][dA][dE][NFurfurylGly]-{hSer(lactone)}; C-terminus assumed),9 nM
10,NCCCC[C@@H](N)C(=O)N[C@H](Cc1ccc(O)cc1)C(=O)N[C@H](CCC(=O)O)C(=O)N[C@H](Cc1ccc(O)cc1)C(=O)N[C@H](CCC(=O)O)C(=O)N[C@H](Cc1ccc(O)cc1)C(=O)N(CC(=O)N[C@H]1CCOC1=O)Cc1ccco1 [Spot H1] (H-[dK][dY][dE][dY][dE][dY][NFurfurylGly]-{hSer(lactone)}; C-terminus assumed),6 nM
11,NCCCC[C@@H](N)C(=O)N[C@H](Cc1ccc(O)cc1)C(=O)N[C@H](CC(=O)O)C(=O)N(CCc1ccc(S(N)(=O)=O)cc1)CC(=O)N(CCc1ccc(S(N)(=O)=O)cc1)CC(=O)N[C@H](CC(=O)O)C(=O)N(CC(=O)N[C@H]1CCOC1=O)Cc1ccco1 [Spot H2] (H-[dK][dY][dD][N(4-Sulfamoylphenethyl)Gly][N(4-Sulfamoylphenethyl)Gly][dD][NFurfurylGly]-{hSer(lactone)}),5 nM
12,NCCCC[C@@H](N)C(=O)N[C@H](Cc1ccc(O)cc1)C(=O)N[C@H](CC(=O)O)C(=O)N[C@H](Cc1c[nH]c2ccccc12)C(=O)N[C@H](CCC(=O)O)C(=O)NCC(=O)N(CC(=O)N[C@H]1CCOC1=O)Cc1ccco1 [Spot H6] (H-[dK][dY][dD][dW][dE]G[NFurfurylGly]-{hSer(lactone)}; C-terminus assumed),11 nM
13,NCCCC[C@@H](N)C(=O)N[C@H](Cc1ccc(O)cc1)C(=O)N[C@H](Cc1ccc(O)cc1)C(=O)N[C@H](CCC(=O)O)C(=O)N[C@H](CC(N)=O)C(=O)N(CC(=O)N(CC(=O)N[C@H]1CCOC1=O)Cc1ccco1)Cc1ccc2c(c1)OCO2 [Spot H7] (H-[dK][dY][dY][dE][dN][Gly(N-piperonyl)][NFurfurylGly]-{hSer(lactone)}),9 nM
14,NCCCC[C@@H](NC(=O)[C@@H](CC(=O)O)NC(=O)[C@H](N)Cc1c[nH]c2ccccc12)C(=O)N[C@H](Cc1ccc(O)cc1)C(=O)N[C@H](Cc1c[nH]cn1)C(=O)N(CCc1ccc(S(N)(=O)=O)cc1)CC(=O)N(CC(=O)N[C@H]1CCOC1=O)Cc1ccco1 [Spot H8] (H-[dW][dD][dK][dY][dH][N(4-Sulfamoylphenethyl)Gly][NFurfurylGly]-{hSer(lactone)}),2 nM
15,C=CCN(CC(=O)N[C@H](CCC(=O)O)C(=O)N[C@H](CC(C)C)C(=O)N(CC(=O)N[C@H]1CCOC1=O)Cc1ccco1)C(=O)[C@@H](CC(=O)O)NC(=O)[C@@H](Cc1ccc(O)cc1)NC(=O)[C@H](N)CCCCN [Spot H9] (H-[dK][dY][dD][NAllylGly][dE][dL][NFurfurylGly]-{hSer(lactone)}; C-terminus assumed),4 nM

# Same assay, conditions: microarray, fluorescently labeled secondary antibody
row,Compound,binding of anti-FLAG antibody to spotted compound
1,N-Asp-Tyr-Lys-Asp-Asp-Asp-Asp-Lys-C [FLAG peptide],binds

# System: anti-Myc antibody
# Experiment: Microarray hybridization of spotted compounds with anti-Myc antibody
# Type: binding
# Settings: fluorescently labeled secondary antibody
# Description: as §1
# Microarray Spotting, Hybridization, and Data Analysis. […]
# Dry slides were placed inside the Whatman Fast Frame following the provided instructions, and each of the 16 wells per slide was blocked with 100 μl of StartingBlock (Fisher) for 1 hr at RT with a multichannel pipetteman. […] Gal files were created and used to determine fluorescence intensity of each of the spots with GenePixPro6.0. […] GPR files were created and median fluorescence-background fluorescence values for each of the spots were cut and pasted in Excel and arranged (using simple macros) to simplify transferring results to GraphPad Prism 5.0 software for binding curve analyses.
row,Compound,binding of anti-Myc antibody to spotted compound
1,N-Asp-Tyr-Lys-Asp-Asp-Asp-Asp-Lys-C [FLAG peptide],No binding

# System: anti-FLAG antibody
# Experiment: Competition experiment: anti-FLAG antibody pre-incubated with excess soluble peptide before hybridization to the array
# Type: binding, mouse
# Settings: antibody first incubated with excess peptide
# Description: To address if the higher affinity hits bind to anti-FLAG antibody in the antigen-binding site, the inventors carried out a competition experiment in which the anti-FLAG antibody was first incubated with an excess of FLAG peptide or, as a control, the Myc peptide, before hybridization to the array.
row,Compound,effect of excess soluble peptide on binding of anti-FLAG antibody to the molecules on the microarray
1,N-Asp-Tyr-Lys-Asp-Asp-Asp-Asp-Lys-C [FLAG peptide],abrogated binding
